According to patent publication US9573920B2, “Compound, medicine, anti-inflammatory, cosmetic, food and drink, and method for producing compound” (Amino Up Chemical Co., Ltd., priority 2013, dated 2017):

System: nitrogen monoxide (NO) production due to IL-1β
Experiment: NO production inhibitory action in IL-1β-stimulated rat liver cells (Griess method)
Assay type: cell-based
Conditions: IL-1β 1 nM, 8 hours; for IC50: nitrite by Griess method, read-out: IC50 value (drug concentration at NO production of 50%)
Protocol: Liver cells were isolated from male Wistar rats (200 to 250 g, Charles River) by a collagenase perfusion method (collagenase: Wako Pure Chemicals). The isolated liver cells were suspended in a medium at 6×10^5 cells/mL, seeded in 35 mm plastic dishes (Falcon Plastic) (2 mL/dish), and cultured in an incubator with 5% CO2 at 37° C. Williams' Medium E (WE) containing 10% newborn calf serum, HEPES (5 mM), penicillin (100 U/mL), streptomycin (0.1 mg/mL), dexamethasone (10 nM), and insulin (10 nM) was used as the medium. After 5 hours, the medium was replaced with fresh WE free of any serum and hormone, and the cells were cultured overnight until before use of the cells for an experiment.
On day 1 after the start of the culture, cells were subjected to replacement with fresh WE free of any serum and hormone, and recombinant rat IL-1β (purity of 97% or more) (PeproTech, Rocky Hill, N.J., USA), and Pa5 extracted with methanol in Example 1 or negletein in the comparative example were added to the medium. In each medium, the concentration of IL-1β was 1 nM, the concentrations of Pa5 were 5, 10, and 20 μM, and the concentrations of negletein were 10, 20, and 40 μM (FIG. 1). The amount of NO in each medium was measured 8 hours after the addition of IL-1β, and Pa5 or negletein by a Griess method (Green L C et al, Anal Biochem 1982; 126: 131-138). More specifically, the amount of nitrite (stable metabolite of NO) in each medium was measured.
Liver cells originated from rats were cultured in like manner with Example 4. On day 1 after the start of the culture, the cells were subjected to replacement with fresh WE free of any serum and hormone, and recombinant rat IL-1β (similar to that in Example 4) and Pa9 extracted with methanol in Example 3 were added to the medium. In each medium, the concentration of IL-1β was 1 nM, and the concentrations of Pa9 were 10 μM, 50 μM, and 100 μM (FIG. 5). The amount of NO in each medium was measured 8 hours after the addition of IL-1β and Pa9 in like manner with Example 4.

| IC50 [µM] | Compound | production of NO due to IL-1β (Pa9 10, 50, 100 μM) | production of NO due to IL-1β (negletein 10, 20, 40 μM) |
| --- | --- | --- | --- |
| 32 | O=c1ccc2cc(O)c(O)cc2o1 [Pa9, esculetin] | dose-dependently inhibited | – |
| 16.3 | COc1cc2oc(-c3ccccc3)cc(=O)c2c(O)c1O [negletein, reference compound] | – | dose-dependently inhibited |
